Read-outs that look alike come from different tables or passages of the source. One block for each molecule: values may come before it.
Experiments:
AncSR1 = assay: luciferase reporter assay, inhibition of AncSR1 in the presence of estradiol; assay type: cell-based; conditions: with estradiol
AncSR2 = assay: luciferase reporter assay, inhibition of AncSR2 in the presence of EC80 11-deoxycorticosterone; conditions: in the presence of EC80 11-deoxycorticosterone (1.7 nM)
[1] = biological target: T1, estrogen receptor ligand binding domain (Platynereis dumerilii, UniProt C0IR13); assay: activation of the estrogen receptor ligand binding domain of Platynereis dumerilii
T1 sequence (C0IR13 197-482): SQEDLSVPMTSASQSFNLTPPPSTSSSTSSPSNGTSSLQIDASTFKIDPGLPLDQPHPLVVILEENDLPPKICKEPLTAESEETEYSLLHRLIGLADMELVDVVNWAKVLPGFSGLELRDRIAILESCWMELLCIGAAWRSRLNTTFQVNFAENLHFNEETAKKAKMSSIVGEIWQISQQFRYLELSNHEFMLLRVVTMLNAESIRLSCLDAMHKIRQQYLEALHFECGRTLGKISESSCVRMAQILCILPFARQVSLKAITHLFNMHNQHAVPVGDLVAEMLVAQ
Excerpt: (§4) Fig. S8 Activation of the estrogen receptor ligand binding domains of two annelids (Capitella capitata, a polychaete worm &
(§5) Values adjacent to the hormone legends (red squares and black triangles) indicate the EC50 value for

AncSR2-LBD = assay: luciferase reporter gene assay, Gal4-DBD fusion of AncSR2-LBD in CHO-K1 cells, activation; assay type: cell-based; conditions: for EC50: AncSR2, representative dose activation curves (Fig. S4) and Table S5 sections c-i
Excerpt: To experimentally test these hypotheses, we synthesized cDNAs for the AncSR1 and AncSR2 LBD protein sequences, expressed them as Gal4-DBD fusion constructs, and characterized their sensitivity to hormones using luciferase reporter gene assays. […] It was unresponsive to a broad array of androgens, progestagens, and corticosteroids, as well as cholesterol (Figure 2A, Figure S3).
For AncSR2, we identified all plausible alternate reconstructions (those with posterior probability >0.20 excluding biochemically similar K/R, D/E, S/T, and I/L differences) and introduced each alternate state individually into the AncSR2 background using the Quikchange Mutagenesis kit (Stratagene), verified clones by sequencing, and repeated the activation assays with each version of AncSR2 (Figure S6). The ML AncSR2 sequence reconstructed on the ML tree had high baseline activation in the absence of ligand; this phenotype is almost certainly an artifact, because constitutive baseline activity is not present in any of AncSR2's extant descendants; it is well-established that some amino acid replacements can cause nuclear receptors to become constitutive by marginally stabilizing the active conformation in the absence of hormone. […] The “constitutive” Leu79 state is weakly supported on the ML tree (PP = 0.59), and has no support (PP = 0.00) on the phylogeny that is most parsimonious in terms of gene duplications and losses; in contrast, the “non-constitutive” state Met79 has PP = 0.41 on the ML tree and PP = 1.00 on the rearranged gene duplication/loss tree (Figure S12, Table S8). The AncSR2 sequence used for all experiments reported in the text therefore contains state Met79. The other alternate reconstructions were then reintroduced into this AncSR2 sequence: none qualitatively changed the receptor's sensitivity to the various classes of steroid hormones, except for A171V, which conferred constitutive activity (Figure S6).

[2] = biological target: T2, human estrogen receptor alpha (hERα) (Homo sapiens, UniProt P03372); assay: luciferase reporter assay, human ERα LBD; assay type: cell-based; conditions: Fig. S8
T2 sequence (P03372 311-595 limits assumed): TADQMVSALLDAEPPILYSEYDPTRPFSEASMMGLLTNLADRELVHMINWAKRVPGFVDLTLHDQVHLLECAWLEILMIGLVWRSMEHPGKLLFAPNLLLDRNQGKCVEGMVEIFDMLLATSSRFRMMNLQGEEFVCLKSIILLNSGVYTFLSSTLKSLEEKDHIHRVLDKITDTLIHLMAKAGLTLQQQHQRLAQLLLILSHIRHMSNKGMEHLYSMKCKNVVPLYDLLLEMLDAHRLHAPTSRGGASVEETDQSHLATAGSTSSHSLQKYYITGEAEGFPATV

[3] = biological target: T3, estrogen receptor ligand binding domain (Capitella capitata, UniProt C0IRV2); assay: activation of the estrogen receptor ligand binding domain of Capitella capitata
T3 sequence (C0IRV2 151-381): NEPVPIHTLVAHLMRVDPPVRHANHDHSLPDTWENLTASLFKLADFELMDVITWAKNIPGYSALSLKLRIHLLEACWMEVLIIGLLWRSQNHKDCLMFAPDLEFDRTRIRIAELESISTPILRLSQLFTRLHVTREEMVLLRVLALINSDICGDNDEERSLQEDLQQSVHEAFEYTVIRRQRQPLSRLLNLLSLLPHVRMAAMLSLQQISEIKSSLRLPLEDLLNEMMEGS
Excerpt: as §4, §5

AncSR1-LBD = assay: luciferase reporter gene assay, Gal4-DBD fusion of AncSR1-LBD in CHO-K1 cells, activation; assay type: cell-based
Excerpt: To experimentally test these hypotheses, we synthesized cDNAs for the AncSR1 and AncSR2 LBD protein sequences, expressed them as Gal4-DBD fusion constructs, and characterized their sensitivity to hormones using luciferase reporter gene assays.

[4] = biological target: T4, human mineralocorticoid receptor (hMR) (Homo sapiens, UniProt P08235); assay: luciferase reporter assay, human MR LBD; assay type: cell-based
T4 sequence (P08235 736-984): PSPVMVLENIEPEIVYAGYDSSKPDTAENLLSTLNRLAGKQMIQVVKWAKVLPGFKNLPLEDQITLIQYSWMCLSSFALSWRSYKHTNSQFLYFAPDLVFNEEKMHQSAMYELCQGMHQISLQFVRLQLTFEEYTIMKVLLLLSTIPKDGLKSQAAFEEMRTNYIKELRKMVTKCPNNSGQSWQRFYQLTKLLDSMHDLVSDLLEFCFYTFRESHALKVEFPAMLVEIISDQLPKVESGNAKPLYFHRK

AncSR1_Alt4 = assay: luciferase reporter assay, alternative reconstruction AncSR1_Alt4; assay type: cell-based; conditions: Alt4, Fig. S5B
Excerpt: (§1) To determine the robustness of functional inferences to statistical uncertainty in the reconstruction of AncSR1 and AncSR2, we used two approaches. AncSR1 had too many ambiguously reconstructed sites to examine each such residue individually, so we computationally sampled from the posterior probability distribution of reconstructed amino acid states to generate a cloud of possible ancestral sequences, each harboring a large number of alternate states. Specifically, we generated 1,000,000 possible ancestral sequences by sampling from the posterior probability distribution of states at each site. […] We synthesized these five radically alternative ancestral reconstructions de novo and repeated the functional assays.
(§2) A) Distribution of posterior probabilities of 1 million protein sequences assembled by sampling amino acid states at each site from the posterior probability distribution for AncSR1 LBD. The ML reconstruction (AncSR1-ML) and the five alternative sequences with the highest posterior probability (Alt1-Alt5) in the 1 million samples are […]
(§3) The column height and error bars indicate the mean and SEM of three independent experiments, respectively. […]

AncSR1_Alt3 = assay: luciferase reporter assay, alternative reconstruction AncSR1_Alt3; assay type: cell-based; conditions: Alt3, Fig. S5B
Excerpt: as §1, §2, §3

AncSR1_Alt5 = assay: luciferase reporter assay, alternative reconstruction AncSR1_Alt5; assay type: cell-based; conditions: Alt5, Fig. S5B
Excerpt: as §1, §2, §3

AncSR1_Alt1 = assay: luciferase reporter assay, alternative reconstruction AncSR1_Alt1; assay type: cell-based; conditions: Alt1, Fig. S5B
Excerpt: as §1, §2, §3

AncSR1_Alt2 = assay: luciferase reporter assay, alternative reconstruction AncSR1_Alt2; assay type: cell-based; conditions: Alt2, Fig. S5B
Excerpt: as §1, §2, §3

[5] = AncSR2, Table S5 section c, pairs H1/H2: 23/8, 19/18, listed as given under Hormone 1
[6] = AncSR1, representative dose activation curves (Fig. S3) and Table S5 section b

inhibition of AncSR1 (in words) (AncSR1): competitively inhibited
Structure (SMILES): CC/C(=C(\c1ccc(O)cc1)c1ccc(OCCN(C)C)cc1)c1ccccc1 [4-hydroxytamoxifen, 4-Hydroxytamoxifen]
inhibition of AncSR2 (in words) (AncSR2): not inhibited

inhibition of AncSR1 (in words) (AncSR1): competitively inhibited
Structure (SMILES): C[C@]12CC[C@@H]3c4ccc(O)cc4C[C@@H](CCCCCCCCC[S+]([O-])CCCC(F)(F)C(F)(F)F)[C@H]3[C@@H]1CC[C@@H]2O (stereo partly shown) [ICI 182,780, fulvestrant]
inhibition of AncSR2 (in words) (AncSR2): not inhibited

Structure (SMILES): CC(=O)[C@H]1CCC2C3CCc4cc(O)ccc4C3CC[C@@]21C (stereo partly shown) [NPT, 19-nor-1,3, 5(10)-pregnatriene-3-ol-20-one]
EC50 [1]: 1.2 nM | Ratio H1/H2 of EC50, preference for non-aromatized A-ring (AncSR2-LBD; [5]): 113.75 | Ratio H2/H1 of EC50, preference for non-aromatized A-ring (AncSR2-LBD; [5]): 0.01 | EC50 (AncSR2-LBD): 182 nM | EC50 [2]: 5.4 nM | EC50 [3]: 8.7 nM | EC50 (AncSR1-LBD; [6]): 179 nM | activation of AncSR1 (in words) (AncSR1-LBD; luciferase reporter): almost as potent an AncSR1 activator as endogenous estrogens

EC50 (AncSR2-LBD; read-out: EC50): 9.8 nM | EC50 [4]: 37 nM
Structure (SMILES): C[C@]12CCC(=O)C=C1CC[C@@H]1[C@@H]2[C@@H](O)C[C@@]2(C)[C@H]1CC[C@]2(O)C(=O)CO [cortisol]

Structure (SMILES): C[C@]12CC[C@@H]3c4ccc(O)cc4CC[C@H]3[C@@H]1CC[C@@H]2O [estradiol]
EC50 (AncSR1_Alt4): 316 nM | EC50 [1]: 12 nM | EC50 (AncSR1_Alt3): 12 nM | EC50 (AncSR1_Alt5): 94 nM | EC50 (AncSR2-LBD; read-out: EC50): > 10000 nM | EC50 (AncSR1_Alt1): 50 nM | EC50 (AncSR1_Alt2): 350 nM | EC50 [3]: 8.6 nM | EC80 (AncSR1-LBD; AncSR1, estradiol concentration used in inhibition assay): 200 nM | EC50 (AncSR1-LBD; [6]): 49 nM | EC50 (AncSR1-LBD; AncSR1-ML, Fig. S5B): 66 nM

Source: paper PMC3499368, “Evolution of Minimal Specificity and Promiscuity in Steroid Hormone Receptors” (PLoS Genetics, 2012)
